Test results as given in US11253535B2, “Carboline derivatives or phosphorous derivatives for the treatment of muscular myopathies and traumatic injuries to muscles” (Centre National de la Recherche Scientifique (C.N.R.S), priority 2015, dated 2022).

Legend:
DMD myotubes = assay: Spontaneous calcium activity (calcium waves) in DMD patient myotubes, Fluo-4 AM, confocal microscopy; assay type: cell-based, human; details: for reduction in the number of myotubes with spontaneous calcium activity: DMD myotubes preincubated, 100 μM (FIG. 5D, 8D); for reduction in the amplitude of the calcium waves (oscillations): 100 μM
Excerpt: (A) Characterization of spontaneous calcium waves in DMD myotubes. Healthy myotubes mostly show low activity (13% of myotubes), while 49% of untreated DMD myotubes show significant spontaneous calcium activity. The amplitude of calcium oscillations in untreated DMD myotubes is increased by 60% compared with healthy myotubes. (B) Examples of trace recordings of a representative region of interest in myotubes and DMDs. (C) Amplitude of spontaneous calcium oscillations in DMD myotube cultures in the presence of modulators of the CD38 enzyme pathway. […] Similarly, 8-Bromo-cADPR (cADPR antagonist, 100 μM, n=48) and NED-19 (NAADP antagonist, 100 μM, n=167) reduce by 40% the amplitude of calcium oscillations in DMD myotubes. […] The t-test was used with a significance level set at 0.05, with a *P<0.05; **P<0.01, ***P<0.001, n=cell number.
(A) DMD myotubes loaded with a calcium probe (Fluo 4). Examples of trace recordings of a representative region of interest in control DMD myotubes (B) and treated for 30 min with NAADP (100 μM) (C). […] The chi square (proportion of active cells) and t-test (mean peak amplitude) were used with a significance level set at 0.05, with a *P<0.05 ***P<0.001.
In parallel with mouse cardiomyocyte studies, two lines of human skeletal myotubes (a patient cell line with DMD and a control line) were used. Human myotubes are particularly suitable for evaluating a pharmacological tool from a therapy perspective. The inventors first tested the CZ-27, the NED-19 antagonist of NAADP (the most efficient messenger produced by CD38), and 8-bromo-cADP-ribose (a cADP-ribose antagonist produced by CD38. The cells were loaded with Fluo-4 AM and recorded by confocal microscopy.
The amplitude of the calcium waves was reduced by 40% (see FIG. 5A) compared to that of the untreated DMD myotubes. […] A 40% reduction in the amplitude of the calcium waves is also observed when the cells are treated with 100 μM of 8-Bromo-cADPR or NED-19 (see FIG. 5C). When cultures of DMD myotubes were preincubated with NED-19, the number of myotubes with spontaneous calcium activity was reduced in a dose-dependent manner for concentrations of 2 to 300 μM (60% to 100 μM reduction) (see FIG. 5D). In addition, when cultures of DMD myotubes were preincubated with NAADP at 100 μM, the number of myotubes with spontaneous calcium activity was reduced (75% reduction with 100 μM NAADP) (see FIG. 8D).

mdx mouse cardiomyocytes = assay: Spontaneous calcium activity (spikes and calcium waves) of mdx mouse cardiomyocytes; assay type: cell-based
Excerpt: FIG. 4: Frequency of spontaneous spikes and calcium waves in WT, mdx and mdx/CD38^−/− mouse cardiomyocytes. 1-way-ANOVA test with a Bonferroni correction. Significance level set at 0.05, with a *P<0.05; **P<0.01, ***P<0.001. (A) The spontaneous calcium activity of cardiomyocytes (calcium spikes and waves) of the mdx/CD38^−/− mouse is reduced by 80% compared to the values of mdx mice. (B) The application of the CD38 CZ-27 antagonist to mdx mouse cardiomyocytes reduces the frequency of spikes by about 70%.
Evaluation of the Spontaneous Calcium Activity of Mouse Cardiomyocytes:
In the mdx cardiomyocyte, it was shown that the calcium reserves of the sarcoplasmic reticulum were reduced, probably due to Ca^2+ leakage through RyRs that are abnormally sensitized.
In order to study the impact of the absence of CD38 on these parameters, the different parameters of spontaneous spike activity and calcium waves were studied. […] The increased frequency of these spontaneous calcium events may lead to arrhythmias (when they spread to the whole heart tissue) as well as to a long-term cardiac hypertrophy associated with a change in the Ca^2+-dependent gene expression.
The protective effect of the CD38 deletion in mice was then observed by comparing cardiomyocytes of the double-mutant model with cardiomyocytes of mdx mice. The spontaneous calcium activity of mdx/CD38^−/− cardiomyocytes is very small compared to mdx (spikes and calcium waves, see FIG. 4A). […] CD38 deletion in mdx/CD38^−/− favor its protective role in DMD, with the reversal of many deleterious parameters in mdx mice (spontaneous calcium spikes and waves, sensitization of RyRs).

[1] = DMD myotubes, vs untreated DMD myotubes (FIG. 5C)

Nc1ncnc2c1ncn2[C@@H]1O[C@H](COP(=O)(O)OP(=O)(O)OC[C@H]2O[C@@H]([n+]3cccc(C(=O)[O-])c3)[C@H](O)[C@@H]2O)[C@@H](O)[C@H]1OP(=O)(O)O [NAADP, nicotinic acid adenine dinucleotide phosphate]
reduction in the number of myotubes with spontaneous calcium activity (DMD myotubes): 75%
percentage of cells exhibiting spontaneous calcium activity (DMD myotubes; DMD myotubes treated 30 min, 100 μM (FIG. 8D)): greatly reduced
amplitude of the spontaneous calcium oscillations (DMD myotubes; DMD myotubes treated 30 min, 100 μM (FIG. 8E)): strongly reduced

COc1ccc([C@H]2N[C@H](C(=O)O)Cc3c2[nH]c2ccccc32)cc1CN1CCN(c2ccccc2F)CC1 [NED-19, (1R, 3S)-1-[3-[[4-(2-fluorophenyl)piperazin-1-yl]methyl]-4-methoxyphenyl]-2,3,4,9-tetrahydro-1H-pyrido[3,4-b]indole-3-carboxylic acid]
reduction in spontaneous calcium wave activity (mdx mouse cardiomyocytes; mdx mouse cardiomyocytes (FIG. 4C)): about 90%
number of cardiomyocytes exhibiting spontaneous calcium activity (mdx mouse cardiomyocytes; mdx mouse cardiomyocytes incubated with compound (not shown)): significant reduction
frequency of spontaneous calcium waves (mdx mouse cardiomyocytes; mdx mouse cardiomyocytes, rare cases of spontaneous activity in presence of compound (FIG. 4C)): greatly reduced
reduction in the number of myotubes with spontaneous calcium activity (DMD myotubes): 60%
reduction in the amplitude of the calcium waves (oscillations) (DMD myotubes; [1]): 40%
percentage of cells with spontaneous calcium activity (DMD myotubes; DMD myotubes, 2-300 μM (FIG. 5D)): strongly reduced dose-dependently

N=c1c2nc(Br)n3c2ncn1[C@H]1O[C@H](COP(=O)(O)OP(=O)(O)OC[C@H]2O[C@@H]3C(O)C2O)C(O)C1O (some centres unmarked) [8-Bromo-cADPR, 8-bromo adenosine diphosphate cyclic ribose]
reduction in the amplitude of the calcium waves (oscillations) (DMD myotubes; [1]): 40%

CCCCOP(=O)(O)OC[C@@H]1O[C@H]([n+]2cccc(C(N)=O)c2)C(F)C1O (stereo partly drawn) [CZ-27, 2′-deoxy-2′-fluoro-β-nicotinamide arabinofuranoside-5′-(n-butyl) phosphate]
frequency of spontaneous calcium spikes (mdx mouse cardiomyocytes; mdx mouse cardiomyocytes (FIG. 4B)): reduction in spikes frequency
reduction of the frequency of spontaneous calcium spikes (mdx mouse cardiomyocytes; mdx mouse cardiomyocytes, application of the compound (FIG. 4B)): about 70%
amplitude of spontaneous calcium oscillations (DMD myotubes; DMD myotubes (FIG. 5C)): strongly reduces
reduction in the amplitude of the calcium waves, dose-dependent (DMD myotubes; DMD myotubes preincubated with 10, 50 and 100 μM, vs untreated DMD myotubes (FIG. 5C)): up to 80%
